Reference: ChEMBL document CHEMBL5465560, “Selectivity Literature for EUbOPEN Chemogenomic Library” (2024)

Key:
[1] = target: Serine/threonine-protein kinase Nek7 (Homo sapiens) (UniProt Q8TDX7); assay: Selectivity interaction (Kinase panel (Z-LYTE Assay)) EUB0001632a NEK7; settings: at 10 µM
[2] = target: Serine/threonine-protein kinase pim-3 (Homo sapiens) (UniProt Q86V86); assay: Selectivity interaction (KinomeScan (DiscoverX)) EUB0000666a PIM3; settings: at 10 µM
[3] = target: Alpha-2A adrenergic receptor (Homo sapiens, UniProt P08913); assay: Selectivity interaction (Alpha2A calcium flux assay ) EUB0000877a ADRA2A
Chain of Alpha-2A adrenergic receptor (P08913 whole entry): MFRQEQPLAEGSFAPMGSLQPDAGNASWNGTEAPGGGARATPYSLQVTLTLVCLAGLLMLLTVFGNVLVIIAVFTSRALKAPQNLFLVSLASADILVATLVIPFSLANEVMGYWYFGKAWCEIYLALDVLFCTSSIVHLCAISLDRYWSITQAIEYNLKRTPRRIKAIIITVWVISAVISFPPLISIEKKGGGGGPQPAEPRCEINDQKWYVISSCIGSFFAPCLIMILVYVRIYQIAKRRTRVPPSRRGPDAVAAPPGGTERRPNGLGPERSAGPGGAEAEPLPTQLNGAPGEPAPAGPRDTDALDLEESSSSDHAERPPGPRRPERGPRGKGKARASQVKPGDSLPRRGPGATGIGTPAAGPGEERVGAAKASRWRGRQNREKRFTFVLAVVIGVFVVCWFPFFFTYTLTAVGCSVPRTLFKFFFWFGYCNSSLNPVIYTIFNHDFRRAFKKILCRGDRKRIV

[4] = target: Ribosomal protein S6 kinase alpha-1 (Homo sapiens, UniProt Q15418); assay: Selectivity interaction (KinomeScan (DiscoverX)) EUB0000311b RPS6KA1; settings: at 1 µM
Chain of Ribosomal protein S6 kinase alpha-1 (Q15418 whole entry): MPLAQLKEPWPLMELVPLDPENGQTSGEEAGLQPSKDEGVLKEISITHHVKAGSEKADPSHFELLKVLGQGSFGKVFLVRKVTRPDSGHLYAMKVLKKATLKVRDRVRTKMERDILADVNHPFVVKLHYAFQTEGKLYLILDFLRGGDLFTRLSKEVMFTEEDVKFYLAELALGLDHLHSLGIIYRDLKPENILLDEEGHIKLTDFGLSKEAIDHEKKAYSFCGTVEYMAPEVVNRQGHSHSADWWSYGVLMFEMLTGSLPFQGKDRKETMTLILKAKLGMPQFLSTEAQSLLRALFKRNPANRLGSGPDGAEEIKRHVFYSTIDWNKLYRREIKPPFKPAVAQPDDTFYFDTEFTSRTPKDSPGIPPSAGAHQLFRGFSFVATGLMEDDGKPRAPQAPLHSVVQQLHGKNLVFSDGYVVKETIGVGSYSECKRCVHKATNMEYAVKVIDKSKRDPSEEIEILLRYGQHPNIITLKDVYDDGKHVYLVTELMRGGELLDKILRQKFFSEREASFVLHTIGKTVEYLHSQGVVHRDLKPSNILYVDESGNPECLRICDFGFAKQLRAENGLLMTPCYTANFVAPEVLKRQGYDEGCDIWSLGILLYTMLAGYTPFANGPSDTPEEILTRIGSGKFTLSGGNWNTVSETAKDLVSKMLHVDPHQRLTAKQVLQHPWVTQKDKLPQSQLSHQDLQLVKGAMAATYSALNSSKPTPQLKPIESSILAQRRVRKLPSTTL

[5] = target: Phosphatidylinositol 4-kinase alpha (Homo sapiens, UniProt P42356); assay: Selectivity interaction (Kinase panel (literature)) EUB0001199aCl PI4KA; settings: at 1 µM
Chain of Phosphatidylinositol 4-kinase alpha (P42356 whole entry, looked up): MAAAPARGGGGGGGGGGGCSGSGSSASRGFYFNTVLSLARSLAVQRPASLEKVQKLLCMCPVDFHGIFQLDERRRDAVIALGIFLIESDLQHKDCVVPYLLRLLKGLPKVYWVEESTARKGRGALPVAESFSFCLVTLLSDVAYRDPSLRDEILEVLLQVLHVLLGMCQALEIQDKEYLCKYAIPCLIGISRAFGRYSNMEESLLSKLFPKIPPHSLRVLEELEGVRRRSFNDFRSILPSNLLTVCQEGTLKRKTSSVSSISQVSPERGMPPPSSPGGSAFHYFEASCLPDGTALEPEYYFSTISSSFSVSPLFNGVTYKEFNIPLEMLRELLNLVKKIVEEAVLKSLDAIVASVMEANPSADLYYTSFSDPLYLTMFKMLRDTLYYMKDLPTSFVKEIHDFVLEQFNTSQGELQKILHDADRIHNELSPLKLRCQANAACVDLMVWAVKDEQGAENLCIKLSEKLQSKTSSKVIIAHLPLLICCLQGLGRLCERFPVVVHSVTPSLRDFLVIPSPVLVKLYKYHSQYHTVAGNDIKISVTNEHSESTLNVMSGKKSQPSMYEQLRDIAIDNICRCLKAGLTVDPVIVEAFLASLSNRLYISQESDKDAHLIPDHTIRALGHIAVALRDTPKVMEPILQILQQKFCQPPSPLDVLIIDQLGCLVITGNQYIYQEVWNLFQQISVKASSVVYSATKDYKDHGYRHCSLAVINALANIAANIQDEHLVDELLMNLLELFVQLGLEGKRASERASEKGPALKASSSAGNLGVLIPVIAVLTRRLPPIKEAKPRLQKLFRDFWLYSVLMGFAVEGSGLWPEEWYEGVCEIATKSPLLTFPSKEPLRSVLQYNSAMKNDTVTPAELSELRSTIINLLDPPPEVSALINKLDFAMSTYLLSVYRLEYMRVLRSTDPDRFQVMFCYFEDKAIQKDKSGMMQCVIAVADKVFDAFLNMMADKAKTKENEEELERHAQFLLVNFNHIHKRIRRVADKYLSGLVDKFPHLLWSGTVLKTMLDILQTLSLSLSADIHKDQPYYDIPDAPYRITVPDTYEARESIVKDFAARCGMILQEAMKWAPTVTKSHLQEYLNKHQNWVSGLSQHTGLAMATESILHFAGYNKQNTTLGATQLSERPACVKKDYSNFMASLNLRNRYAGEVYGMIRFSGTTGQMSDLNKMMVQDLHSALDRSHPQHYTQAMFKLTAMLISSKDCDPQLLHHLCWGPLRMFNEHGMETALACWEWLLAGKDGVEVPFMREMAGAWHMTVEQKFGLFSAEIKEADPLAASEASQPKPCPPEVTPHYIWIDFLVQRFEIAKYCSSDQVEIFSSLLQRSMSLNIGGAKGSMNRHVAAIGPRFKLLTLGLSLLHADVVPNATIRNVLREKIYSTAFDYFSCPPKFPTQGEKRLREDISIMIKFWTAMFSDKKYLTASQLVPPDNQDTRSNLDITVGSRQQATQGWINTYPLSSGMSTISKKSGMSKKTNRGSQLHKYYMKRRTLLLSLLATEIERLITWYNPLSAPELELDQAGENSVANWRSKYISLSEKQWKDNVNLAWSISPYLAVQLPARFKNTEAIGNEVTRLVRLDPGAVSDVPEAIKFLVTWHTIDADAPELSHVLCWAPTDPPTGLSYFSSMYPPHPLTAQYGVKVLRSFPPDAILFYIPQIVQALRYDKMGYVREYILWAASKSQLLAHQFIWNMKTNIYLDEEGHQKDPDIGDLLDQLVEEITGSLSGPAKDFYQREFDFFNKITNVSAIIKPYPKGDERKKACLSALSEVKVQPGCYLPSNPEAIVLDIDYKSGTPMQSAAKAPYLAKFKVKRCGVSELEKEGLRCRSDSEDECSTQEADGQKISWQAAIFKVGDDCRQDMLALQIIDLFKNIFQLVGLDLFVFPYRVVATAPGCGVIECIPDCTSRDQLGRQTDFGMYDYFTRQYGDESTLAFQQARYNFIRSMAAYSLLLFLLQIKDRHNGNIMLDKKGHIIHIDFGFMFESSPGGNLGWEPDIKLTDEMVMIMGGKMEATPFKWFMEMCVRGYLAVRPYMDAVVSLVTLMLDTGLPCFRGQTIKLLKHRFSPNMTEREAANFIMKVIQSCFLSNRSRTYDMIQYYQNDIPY

[6] = target: T1, Receptor-interacting serine/threonine-protein kinase 1 (Homo sapiens) (UniProt Q13546); settings: at 10 µM
T1 sequence (whole entry): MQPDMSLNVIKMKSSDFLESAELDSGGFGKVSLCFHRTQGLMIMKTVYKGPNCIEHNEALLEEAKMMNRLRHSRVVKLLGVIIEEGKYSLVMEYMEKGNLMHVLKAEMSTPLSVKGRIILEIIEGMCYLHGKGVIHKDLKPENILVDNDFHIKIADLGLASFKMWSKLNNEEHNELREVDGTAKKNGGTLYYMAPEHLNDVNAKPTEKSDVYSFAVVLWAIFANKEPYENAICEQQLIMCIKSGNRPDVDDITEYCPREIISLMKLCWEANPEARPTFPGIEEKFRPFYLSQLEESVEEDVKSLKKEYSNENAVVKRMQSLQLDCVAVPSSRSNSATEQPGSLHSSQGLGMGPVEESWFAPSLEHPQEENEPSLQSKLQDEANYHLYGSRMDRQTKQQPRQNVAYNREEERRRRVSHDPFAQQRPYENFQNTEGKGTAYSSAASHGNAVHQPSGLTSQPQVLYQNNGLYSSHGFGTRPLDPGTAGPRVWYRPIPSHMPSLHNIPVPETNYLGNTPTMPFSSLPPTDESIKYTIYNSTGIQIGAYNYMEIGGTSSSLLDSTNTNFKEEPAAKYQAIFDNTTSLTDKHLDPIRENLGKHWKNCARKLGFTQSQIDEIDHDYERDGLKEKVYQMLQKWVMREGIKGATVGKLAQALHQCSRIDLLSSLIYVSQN

[7] = target: T2, Protein kinase C iota type (Homo sapiens) (UniProt P41743); assay: Selectivity interaction (ActivX KiNativ screen (kinase selectivity in THP-1 cell lysates)) EUB0000639a PRKCI; format: subcellular; settings: lysate, at 5 µM
T2 sequence (whole entry): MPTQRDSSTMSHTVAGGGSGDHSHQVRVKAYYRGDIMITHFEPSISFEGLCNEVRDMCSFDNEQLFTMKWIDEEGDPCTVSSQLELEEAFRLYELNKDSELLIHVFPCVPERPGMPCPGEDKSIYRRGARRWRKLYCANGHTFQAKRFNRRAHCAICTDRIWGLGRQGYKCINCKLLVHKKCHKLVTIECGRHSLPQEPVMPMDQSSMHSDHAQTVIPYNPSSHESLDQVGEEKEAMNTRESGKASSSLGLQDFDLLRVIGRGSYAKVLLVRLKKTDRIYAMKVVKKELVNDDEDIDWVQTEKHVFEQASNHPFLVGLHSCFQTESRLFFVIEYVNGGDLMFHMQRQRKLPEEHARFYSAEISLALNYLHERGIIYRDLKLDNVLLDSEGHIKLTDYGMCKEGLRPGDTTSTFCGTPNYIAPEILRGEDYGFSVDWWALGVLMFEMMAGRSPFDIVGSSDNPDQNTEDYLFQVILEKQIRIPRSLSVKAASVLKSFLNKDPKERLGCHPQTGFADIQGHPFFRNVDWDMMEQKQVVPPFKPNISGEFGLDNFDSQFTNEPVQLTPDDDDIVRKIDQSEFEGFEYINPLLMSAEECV

[8] = target: Dual specificity protein kinase CLK3 (Homo sapiens, UniProt P49761); assay: Selectivity interaction (KinomeScan (DiscoverX)) EUB0001049a CLK3; settings: at 1 µM
Chain of Dual specificity protein kinase CLK3 (P49761 whole entry, looked up): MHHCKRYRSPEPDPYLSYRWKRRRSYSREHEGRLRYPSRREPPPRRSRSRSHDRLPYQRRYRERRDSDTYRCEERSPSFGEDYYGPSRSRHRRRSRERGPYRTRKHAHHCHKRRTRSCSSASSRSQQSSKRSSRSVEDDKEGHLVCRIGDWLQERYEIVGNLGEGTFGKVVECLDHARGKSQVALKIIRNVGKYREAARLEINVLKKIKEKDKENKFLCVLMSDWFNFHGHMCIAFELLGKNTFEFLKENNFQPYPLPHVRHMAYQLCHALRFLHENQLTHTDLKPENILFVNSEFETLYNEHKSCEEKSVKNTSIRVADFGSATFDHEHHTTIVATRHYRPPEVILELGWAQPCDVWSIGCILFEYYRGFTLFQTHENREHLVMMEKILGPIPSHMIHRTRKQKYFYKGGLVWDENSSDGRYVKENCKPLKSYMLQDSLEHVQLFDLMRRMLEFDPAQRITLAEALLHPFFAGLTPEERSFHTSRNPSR

[9] = target: T3, Calcium/calmodulin-dependent protein kinase type IV (Homo sapiens) (UniProt Q16566); assay: Selectivity interaction (Kinase screening (Upstate/Millipore)) EUB0000604a CAMK4
T3 sequence (whole entry): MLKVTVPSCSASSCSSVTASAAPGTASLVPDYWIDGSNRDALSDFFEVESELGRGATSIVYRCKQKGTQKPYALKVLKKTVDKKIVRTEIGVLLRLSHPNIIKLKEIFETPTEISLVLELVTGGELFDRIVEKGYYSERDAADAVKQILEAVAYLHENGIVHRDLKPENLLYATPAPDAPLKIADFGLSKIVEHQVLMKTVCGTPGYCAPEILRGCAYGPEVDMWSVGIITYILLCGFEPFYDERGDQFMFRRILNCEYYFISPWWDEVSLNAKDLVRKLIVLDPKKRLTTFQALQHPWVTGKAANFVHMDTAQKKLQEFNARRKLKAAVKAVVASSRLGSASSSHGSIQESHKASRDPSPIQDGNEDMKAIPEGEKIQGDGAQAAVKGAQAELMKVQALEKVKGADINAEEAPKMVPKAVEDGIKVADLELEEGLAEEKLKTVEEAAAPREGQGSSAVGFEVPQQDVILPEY

[10] = target: Serine/threonine-protein kinase pim-2 (Homo sapiens, UniProt Q9P1W9); assay: Selectivity interaction (Ambit KINOMEscan and KiNATiv profiling in Jurkat cells) EUB0000090b PIM2; format: cell-based; settings: at 1 µM
Chain of Serine/threonine-protein kinase pim-2 (Q9P1W9 whole entry, looked up): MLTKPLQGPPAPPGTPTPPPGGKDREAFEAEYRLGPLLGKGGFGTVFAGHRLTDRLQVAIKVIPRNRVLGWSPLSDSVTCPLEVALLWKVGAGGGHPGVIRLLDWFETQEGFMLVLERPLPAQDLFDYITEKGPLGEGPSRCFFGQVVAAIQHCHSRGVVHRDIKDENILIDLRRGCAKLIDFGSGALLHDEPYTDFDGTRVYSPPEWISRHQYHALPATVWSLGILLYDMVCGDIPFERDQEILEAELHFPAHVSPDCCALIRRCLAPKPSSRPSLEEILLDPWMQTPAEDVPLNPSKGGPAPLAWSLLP

[11] = target: Mitogen-activated protein kinase 7 (Homo sapiens) (UniProt Q13164); assay: Selectivity interaction (Ambit KINOMEscan and KiNATiv profiling in Jurkat cells) EUB0000090b MAPK7; format: cell-based; settings: at 1 µM
[12] = target: Serine/threonine-protein kinase SBK1 (Homo sapiens) (UniProt Q52WX2); assay: Selectivity interaction (KinomeScan (DiscoverX)) EUB0000045b SBK1
Chain of Serine/threonine-protein kinase SBK1 (Homo sapiens) (Q52WX2 whole entry): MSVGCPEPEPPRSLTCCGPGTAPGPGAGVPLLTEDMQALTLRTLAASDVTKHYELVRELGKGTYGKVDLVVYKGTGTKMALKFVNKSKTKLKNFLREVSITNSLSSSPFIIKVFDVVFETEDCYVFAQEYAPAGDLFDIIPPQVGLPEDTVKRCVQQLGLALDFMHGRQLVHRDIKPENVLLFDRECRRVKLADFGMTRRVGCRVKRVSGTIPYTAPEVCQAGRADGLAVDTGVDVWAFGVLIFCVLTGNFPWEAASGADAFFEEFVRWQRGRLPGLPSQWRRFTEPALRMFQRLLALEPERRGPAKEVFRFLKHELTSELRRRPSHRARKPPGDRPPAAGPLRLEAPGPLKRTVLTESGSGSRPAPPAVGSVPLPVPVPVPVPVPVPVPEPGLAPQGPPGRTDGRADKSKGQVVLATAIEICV

[13] = Selectivity interaction (KinomeScan (DiscoverX)) EUB0000229b CDK2H; settings: at 1 µM

## Cn1cc(-n2cnc3c(NCc4nc5cc(Cl)c(Cl)cc5[nH]4)nc(N4CCOCC4)nc32)cn1
[1]
  % of control: -10.9%

## O=C(NOC[C@H](O)CO)c1ccc(F)c(F)c1Nc1ccc(I)cc1F
[2]
  % of control: 100%

## CCC(=O)N1CC[C@H](Nc2ncnc3c2CN(c2cnc(OC)c(C(F)(F)F)c2)CC3)C1 [LENIOLISIB]
[3]
  IC50: > 30 µM

## CCc1ccccc1C(=O)Nc1n[nH]c2c(C)c(F)c(C3C(C#N)=C(C)N(C)C(C)=C3C#N)cc12 [BAY-3827]
[4]
  % of control: 1.8%

## CN1Cc2nccc(-c3cn(C)nc3-c3ccc(F)cc3)c2C1=O
[5]
  % of inhibition: -13%

## CCN(CC)CCCCNc1ncc2cc(-c3cc(OC)cc(OC)c3)c(NC(=O)NC(C)(C)C)nc2n1
[6]
  % of control: 100%

## CC[C@@H]1[C@H](F)C(=O)N[C@@H]1COc1nccc2cc(C(N)=O)c(OC)cc12 [ZIMLOVISERTIB]
[7]
  % of inhibition: 14.6%

## COc1cc(Nc2nc(C)cc(-c3cnn4nc(OC)ccc34)n2)cc(C(F)(F)F)c1
[8]
  % of control: 80%

## Cc1cnc(Nc2ccc(F)cc2Cl)nc1-c1c[nH]c(C(=O)N[C@H](CO)c2cccc(Cl)c2)c1
[9]
  % of inhibition: 0%

## CN(C)C/C=C/C(=O)Nc1ccc(C(=O)N2CCCC(Nc3ncc(Cl)c(-c4c[nH]c5ccccc45)n3)C2)cc1 (centres undefined)
[10]
  % of control: 89%
[11]
  % of control: 88%

## C=CC(=O)Nc1cc(-n2c(=O)ccc3cnc4ccc(-c5ccc(NS(C)(=O)=O)cc5)cc4c32)ccc1C
[12]; at 1 µM
  % of control: 4.6%
[12]; at 10 µM
  % of control: 100%

## COc1cc(N(C)c2ccnc3ccc(C(F)(F)F)cc23)cc(OC)c1OC
[13]
  % binding: 100%
